Assay results reported in patent publication US20050020519A1, “Modulation of insulin-regulated aminopeptidase (irap)/angiotensin iv (at4) receptor activity” (priority 2001, published 2005).
Where no end group is shown, it is not given here.

Experiments:
[1] = biological target: T1, IRAP (AT4 receptor) (Homo sapiens, UniProt Q9UIQ6); assay: ^125I-Nle^1 Ang IV binding to membranes of HEK 293 cells transfected with IRAP cDNA; conditions: IRAP cDNA transfected cells
T1 construct: expressed in transfected cells; host or cells: HEK 293 cells (membranes)
Source text: The amount of radioligand bound to the membranes from HEK 293 cells transfected with IRAP cDNA was expressed as a percentage of radioligand bound to membranes from HEK 293 cells transfected with control plasmids.

[2] = biological target: T2, AT4 receptor (Bos taurus, UniProt F1N1Q8); assay: AT4 radioreceptor assay, ^125I-Ang IV binding to bovine adrenal membranes
T2 construct: from tissue; host or cells: bovine adrenal gland membranes
T2 sequence (F1N1Q8 1-1022): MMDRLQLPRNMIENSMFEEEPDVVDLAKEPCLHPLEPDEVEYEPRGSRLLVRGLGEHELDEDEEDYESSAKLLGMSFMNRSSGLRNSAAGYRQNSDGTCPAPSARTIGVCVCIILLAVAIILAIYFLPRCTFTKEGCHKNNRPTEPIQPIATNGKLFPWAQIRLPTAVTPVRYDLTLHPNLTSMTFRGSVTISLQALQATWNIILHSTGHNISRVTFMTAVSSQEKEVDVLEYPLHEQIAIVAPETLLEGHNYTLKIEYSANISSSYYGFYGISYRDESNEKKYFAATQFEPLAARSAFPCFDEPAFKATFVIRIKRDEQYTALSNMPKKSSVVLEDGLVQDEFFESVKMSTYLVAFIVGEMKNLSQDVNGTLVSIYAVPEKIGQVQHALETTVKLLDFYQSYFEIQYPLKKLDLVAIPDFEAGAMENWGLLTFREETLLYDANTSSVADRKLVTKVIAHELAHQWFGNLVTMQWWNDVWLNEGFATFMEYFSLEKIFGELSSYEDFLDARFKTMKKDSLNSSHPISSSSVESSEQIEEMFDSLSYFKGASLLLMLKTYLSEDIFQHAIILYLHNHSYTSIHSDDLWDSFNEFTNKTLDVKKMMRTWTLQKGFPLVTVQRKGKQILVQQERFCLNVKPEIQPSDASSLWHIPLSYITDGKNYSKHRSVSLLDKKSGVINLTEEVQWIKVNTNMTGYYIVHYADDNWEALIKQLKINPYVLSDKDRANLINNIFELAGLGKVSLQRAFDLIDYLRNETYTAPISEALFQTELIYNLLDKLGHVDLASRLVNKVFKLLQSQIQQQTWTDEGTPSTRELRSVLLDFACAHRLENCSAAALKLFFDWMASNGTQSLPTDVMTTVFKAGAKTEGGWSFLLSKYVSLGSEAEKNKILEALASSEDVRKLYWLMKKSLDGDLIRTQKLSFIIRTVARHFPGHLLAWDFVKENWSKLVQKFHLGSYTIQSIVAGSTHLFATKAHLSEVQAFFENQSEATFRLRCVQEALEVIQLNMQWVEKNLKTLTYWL
Procedure: The AT4 radioreceptor assay was used to screen the sheep brain extracts for AT4 receptor modulatory activity. The membranes were prepared using bovine adrenal glands obtained from the abattoir. The adrenals were diced, homogenized in ice-cold hypotonic buffer (50 mM Tris, 5 mM EDTA, pH 7.4) and centrifuged for 10 min at 500 g. […] The resulting pellets were re-homogenized in hypotonic buffer. […] The samples were incubated for 2 h at 37° C., and the bound ligand was separated on Whatman GF/B glass fibre filters.

[3] = test system: rat hippocampal slices; assay: Potassium-evoked ^3H-choline release from rat hippocampal slices; format: cell-based; conditions: at 10^−7M
Procedure: To determine the effect of IRAP inhibitors an acetylcholine release for rat hippocampal slices in vitro, rats were anaesthetized with sodium pentobarbitone, decapitated and the brain rapidly extracted and put on ice. The two sides of the hippocampus were then dissected, and stored in Krebs buffer on ice. The tissues were sectioned into 400 μm slices using a McI1wain slicer, and incubated with 10 μM of ^3H-choline in Krebs buffer for 20 min at 37° C. Following the incubation, the sections were transferred to Brandel superfusion chambers filled with carbogenated Krebs buffer, pH7.0 containing […] hemicholinium HC-3 to prevent choline reuptake. The slices were washed for 60 min at 37° C. with Krebs buffer at a flow rate of 500 μl/min. Superfusate samples were collected at 5 min intervals for the duration of the experiment. After a stable baseline was established, the hippocampal slices were depolarised by the addition of 30 mM KCl to the Krebs buffer and infused for 4 min (stimulation period S1). The tissue was then allowed to recover for 25 min before the next stimulation period (S2). To test the effect of […] […] Fractional ^3H-choline release, expressed as a ratio of S2/S1, was then calculated for each of the different peptides at the different doses.

[4] = test system: SK-N-MC cells; assay: [^3H]-thymidine uptake in SK-N-MC cells; format: cell-based; conditions: Ang IV 10^−10-10^−7 M; LVVYPWTQRF 10^−10-10^−6 M
Procedure: NG108-15 and SK-N-MC cells were cultured in DMEM supplemented with 10% heat-inactivated FCS, 2% HAT supplement, and 100 U/ml penicillin/streptomycin. Cells were routinely used between passages 20 and 30.
Cells were plated at a density of 3×10^4 cells/well in 24 well Falcon plates that had been coated with 0.1 mg/ml poly-L-lysine hydrobromide. The cells were allowed to adhere overnight, and then serum deprived for 48 h before being treated with […] (SEQ ID NO:2) and/or Ang IV (10^−10 to 10^−6 M) for 24 h in medium with or without serum. Five hours before the end of the experiment 1 μCi of ^3H-thymidine was added to each well. At the completion of the incubation, cells were washed twice with 1 ml of PBS at 4° C., followed by 5% trichloroacetic acid at 4° C. for 30 min, which was aspirated before solubilizing the cells in 1 ml 0.25 M NaOH and 0.1% SDS for 30 min at 37° C. Samples were then collected into 5 ml of Ready Value scintillation fluid and ^3H measured in a liquid scintillation counter.

T1 sequence (Q9UIQ6 whole entry): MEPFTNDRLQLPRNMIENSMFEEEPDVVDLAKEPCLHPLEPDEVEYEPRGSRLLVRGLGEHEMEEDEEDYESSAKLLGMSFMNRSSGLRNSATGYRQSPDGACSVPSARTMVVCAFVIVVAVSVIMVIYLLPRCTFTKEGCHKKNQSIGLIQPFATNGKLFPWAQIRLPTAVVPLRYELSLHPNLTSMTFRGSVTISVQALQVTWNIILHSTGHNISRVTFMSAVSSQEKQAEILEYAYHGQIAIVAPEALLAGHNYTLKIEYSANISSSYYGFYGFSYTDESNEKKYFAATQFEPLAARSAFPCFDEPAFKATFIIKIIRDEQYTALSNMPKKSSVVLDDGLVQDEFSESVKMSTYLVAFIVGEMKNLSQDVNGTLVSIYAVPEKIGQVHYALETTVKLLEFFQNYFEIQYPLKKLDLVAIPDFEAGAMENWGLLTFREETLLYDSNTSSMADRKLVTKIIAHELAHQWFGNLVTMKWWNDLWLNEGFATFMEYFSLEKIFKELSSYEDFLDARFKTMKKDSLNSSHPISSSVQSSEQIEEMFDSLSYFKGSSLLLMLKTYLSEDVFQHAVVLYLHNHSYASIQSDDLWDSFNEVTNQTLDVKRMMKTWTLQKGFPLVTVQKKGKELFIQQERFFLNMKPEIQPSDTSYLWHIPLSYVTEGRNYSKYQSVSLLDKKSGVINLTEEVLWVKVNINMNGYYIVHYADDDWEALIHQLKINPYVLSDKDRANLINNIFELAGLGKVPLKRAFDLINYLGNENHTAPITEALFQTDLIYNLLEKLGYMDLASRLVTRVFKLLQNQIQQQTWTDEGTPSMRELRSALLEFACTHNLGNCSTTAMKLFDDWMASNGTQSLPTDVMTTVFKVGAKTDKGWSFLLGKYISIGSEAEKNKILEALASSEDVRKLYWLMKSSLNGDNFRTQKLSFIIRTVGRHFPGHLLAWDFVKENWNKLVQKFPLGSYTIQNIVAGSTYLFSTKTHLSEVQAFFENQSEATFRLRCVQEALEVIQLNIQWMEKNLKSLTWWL

Sequence: LVVYPWTQRF
- binding of ^125I-Nle^1 angiotensin IV to IRAP sites inhibited by ligand [1]: competitively inhibited
- Ki [2]: 1 to 5 nM
- maximum effect on potassium-evoked ^3H-choline release [3]: 180 % of control
- increase of [^3H]-thymidine uptake [4]: up to 81 % above control levels
